From ChEMBL document CHEMBL5465560, “Selectivity Literature for EUbOPEN Chemogenomic Library” (2024)
Each block holds one molecule with its values, some of them ahead of it.

Key:
[1] = molecular target: Ribosomal protein S6 kinase alpha-2 (Homo sapiens) (UniProt Q15349); conditions: at 10 µM
[2] = molecular target: Ribosomal protein S6 kinase alpha-3 (Homo sapiens, UniProt P51812); experiment: Selectivity interaction (Ambit KINOMEscan and KiNATiv profiling in Jurkat cells) EUB0000090b RPS6KA3; format: cell-based; conditions: at 1 µM
[3] = molecular target: Calcium/calmodulin-dependent protein kinase type II subunit delta (Homo sapiens) (UniProt Q13557); experiment: Selectivity interaction (Kinase panel (DSF assay)) EUB0001559a CAMK2D
[4] = molecular target: Mitogen-activated protein kinase 14 (Homo sapiens, UniProt Q16539); experiment: Selectivity interaction (Kinase panel (literature)) EUB0001199aCl MAPK14; conditions: at 1 µM
[5] = molecular target: T1, Tyrosine-protein kinase receptor TYRO3 (Homo sapiens) (UniProt Q06418); experiment: Selectivity interaction (KinomeScan (DiscoverX)) EUB0000655a TYRO3; conditions: at 10 µM
T1 sequence (whole entry): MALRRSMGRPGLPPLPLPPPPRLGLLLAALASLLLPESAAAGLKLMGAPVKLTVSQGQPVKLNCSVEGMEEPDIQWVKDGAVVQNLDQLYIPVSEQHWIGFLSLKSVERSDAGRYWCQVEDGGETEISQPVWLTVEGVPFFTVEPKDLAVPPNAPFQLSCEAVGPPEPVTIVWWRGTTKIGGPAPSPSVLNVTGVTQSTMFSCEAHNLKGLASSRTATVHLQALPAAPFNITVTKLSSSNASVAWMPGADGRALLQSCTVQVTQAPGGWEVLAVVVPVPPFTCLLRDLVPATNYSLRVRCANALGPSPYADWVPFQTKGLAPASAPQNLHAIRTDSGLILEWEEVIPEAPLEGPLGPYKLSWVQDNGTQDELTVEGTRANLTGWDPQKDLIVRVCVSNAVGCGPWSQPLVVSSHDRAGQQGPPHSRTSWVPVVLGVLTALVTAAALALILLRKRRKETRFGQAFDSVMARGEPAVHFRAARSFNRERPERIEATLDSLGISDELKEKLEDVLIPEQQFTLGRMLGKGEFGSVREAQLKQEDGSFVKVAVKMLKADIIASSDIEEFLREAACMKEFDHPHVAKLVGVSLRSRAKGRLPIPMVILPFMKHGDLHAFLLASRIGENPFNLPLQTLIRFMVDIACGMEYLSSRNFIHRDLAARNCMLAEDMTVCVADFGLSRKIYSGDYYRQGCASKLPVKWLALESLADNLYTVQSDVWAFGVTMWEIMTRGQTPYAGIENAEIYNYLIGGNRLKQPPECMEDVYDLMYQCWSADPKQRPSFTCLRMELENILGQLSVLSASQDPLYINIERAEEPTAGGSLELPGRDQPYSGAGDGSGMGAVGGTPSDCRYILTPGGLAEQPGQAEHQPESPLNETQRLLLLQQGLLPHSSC

[6] = molecular target: Sigma non-opioid intracellular receptor 1 (Homo sapiens) (UniProt Q99720); experiment: Selectivity interaction (GPCR panel (PDSP screen)) EUB0001079a SIGMAR1; conditions: at 10 µM
[7] = molecular target: Mitogen-activated protein kinase 6 (Homo sapiens) (UniProt Q16659); experiment: Selectivity interaction (KinomeScan (DiscoverX)) EUB0000595a MAPK6; conditions: at 10 µM
[8] = molecular target: T2, Serine/threonine-protein kinase Sgk3 (Homo sapiens) (UniProt Q96BR1); experiment: Selectivity interaction (ActivX KiNativ screen (kinase selectivity in THP-1 cell lysates)) EUB0000639a SGK3; format: subcellular; conditions: lysate, at 0.2 µM
T2 sequence (whole entry): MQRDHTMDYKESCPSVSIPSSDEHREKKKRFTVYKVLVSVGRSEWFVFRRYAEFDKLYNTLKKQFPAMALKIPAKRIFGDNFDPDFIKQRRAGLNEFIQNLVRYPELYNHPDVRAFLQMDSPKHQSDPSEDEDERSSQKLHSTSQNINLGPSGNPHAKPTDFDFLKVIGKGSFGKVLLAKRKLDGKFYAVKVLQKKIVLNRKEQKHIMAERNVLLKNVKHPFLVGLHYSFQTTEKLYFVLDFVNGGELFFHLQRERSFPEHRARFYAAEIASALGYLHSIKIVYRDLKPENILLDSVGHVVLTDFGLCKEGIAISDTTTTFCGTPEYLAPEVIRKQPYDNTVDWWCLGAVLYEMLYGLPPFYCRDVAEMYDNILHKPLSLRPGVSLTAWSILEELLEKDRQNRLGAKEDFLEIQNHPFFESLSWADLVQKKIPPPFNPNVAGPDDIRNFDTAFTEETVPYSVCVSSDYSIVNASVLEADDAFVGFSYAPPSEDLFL

[9] = molecular target: Serine/threonine-protein kinase pim-1 (Homo sapiens, UniProt P11309); experiment: Selectivity interaction (ProQinase) EUB0000171b PIM1
[10] = molecular target: T3, Testis-specific serine/threonine-protein kinase 1 (Homo sapiens) (UniProt Q9BXA7); experiment: Selectivity interaction (KinomeScan (DiscoverX)) EUB0001049a TSSK1B; conditions: at 1 µM
T3 sequence (whole entry): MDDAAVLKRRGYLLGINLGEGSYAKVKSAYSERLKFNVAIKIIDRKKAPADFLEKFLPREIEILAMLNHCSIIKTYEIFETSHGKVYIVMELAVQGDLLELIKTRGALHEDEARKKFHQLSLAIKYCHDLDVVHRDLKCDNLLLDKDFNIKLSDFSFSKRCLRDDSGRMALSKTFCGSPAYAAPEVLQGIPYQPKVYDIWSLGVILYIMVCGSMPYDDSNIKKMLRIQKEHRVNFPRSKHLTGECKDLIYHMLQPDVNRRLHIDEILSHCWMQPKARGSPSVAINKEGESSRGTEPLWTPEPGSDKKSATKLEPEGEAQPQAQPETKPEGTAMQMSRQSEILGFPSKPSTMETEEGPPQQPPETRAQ

[11] = test system: Platelet-derived growth factor receptor alpha (Homo sapiens), P16234 [T674I]; experiment: (§1) Selectivity interaction (Kinase panel (Carna Biosciences)) EUB0001542aTs PDGFRA; conditions: at 1 µM
[12] = test system: Platelet-derived growth factor receptor alpha (Homo sapiens), P16234 [V561D]; experiment: as §1; conditions: at 1 µM
[13] = molecular target: Platelet-derived growth factor receptor alpha (Homo sapiens, UniProt P16234); experiment: as §1; conditions: at 1 µM
[14] = molecular target: T4, Mitogen-activated protein kinase 12 (Homo sapiens) (UniProt P53778); experiment: Selectivity interaction (Kinase panel (Z-LYTE Assay)) EUB0001632a MAPK12; conditions: at 10 µM
T4 sequence (whole entry): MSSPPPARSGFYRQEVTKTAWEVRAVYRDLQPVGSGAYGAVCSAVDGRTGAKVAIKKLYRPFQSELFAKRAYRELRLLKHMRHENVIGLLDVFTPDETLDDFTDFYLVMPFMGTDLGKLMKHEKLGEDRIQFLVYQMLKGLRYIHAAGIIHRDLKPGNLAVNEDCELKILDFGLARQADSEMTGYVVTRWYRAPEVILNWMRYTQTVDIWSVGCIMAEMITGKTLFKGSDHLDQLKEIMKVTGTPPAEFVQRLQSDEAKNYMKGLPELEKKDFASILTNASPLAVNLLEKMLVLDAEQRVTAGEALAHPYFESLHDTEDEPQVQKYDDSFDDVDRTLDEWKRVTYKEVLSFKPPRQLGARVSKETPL

Chain of Serine/threonine-protein kinase pim-1 (P11309 whole entry, looked up): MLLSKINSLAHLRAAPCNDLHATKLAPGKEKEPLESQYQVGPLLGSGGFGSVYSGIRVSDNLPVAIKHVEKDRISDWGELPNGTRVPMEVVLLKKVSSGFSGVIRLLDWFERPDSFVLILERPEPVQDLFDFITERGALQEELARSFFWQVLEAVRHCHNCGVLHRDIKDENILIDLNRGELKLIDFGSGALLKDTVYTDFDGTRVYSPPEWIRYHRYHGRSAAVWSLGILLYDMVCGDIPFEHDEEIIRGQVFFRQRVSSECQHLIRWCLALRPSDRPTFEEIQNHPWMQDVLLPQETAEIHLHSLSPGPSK
Chain of Mitogen-activated protein kinase 6 (Homo sapiens) (Q16659 whole entry): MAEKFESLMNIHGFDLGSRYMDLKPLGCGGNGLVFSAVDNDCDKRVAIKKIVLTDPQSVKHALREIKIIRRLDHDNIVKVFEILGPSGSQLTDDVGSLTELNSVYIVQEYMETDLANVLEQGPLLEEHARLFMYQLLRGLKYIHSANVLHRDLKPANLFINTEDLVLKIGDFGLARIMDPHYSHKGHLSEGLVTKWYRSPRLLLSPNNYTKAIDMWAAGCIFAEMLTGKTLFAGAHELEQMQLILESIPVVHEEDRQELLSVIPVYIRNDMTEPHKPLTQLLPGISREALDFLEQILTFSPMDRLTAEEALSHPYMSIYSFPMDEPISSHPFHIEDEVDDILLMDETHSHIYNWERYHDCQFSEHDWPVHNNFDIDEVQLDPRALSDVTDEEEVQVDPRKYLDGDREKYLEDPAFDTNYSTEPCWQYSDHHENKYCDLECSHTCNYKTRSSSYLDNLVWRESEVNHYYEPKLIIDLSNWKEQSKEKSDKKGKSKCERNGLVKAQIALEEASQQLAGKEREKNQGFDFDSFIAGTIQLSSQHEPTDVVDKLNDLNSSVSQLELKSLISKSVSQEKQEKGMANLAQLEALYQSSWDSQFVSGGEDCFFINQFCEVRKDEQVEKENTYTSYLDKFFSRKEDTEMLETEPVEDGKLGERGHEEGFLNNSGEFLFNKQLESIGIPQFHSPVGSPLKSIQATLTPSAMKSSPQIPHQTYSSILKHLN
Chain of Platelet-derived growth factor receptor alpha (Homo sapiens), P16234 [V561D] (P16234 whole entry V561D): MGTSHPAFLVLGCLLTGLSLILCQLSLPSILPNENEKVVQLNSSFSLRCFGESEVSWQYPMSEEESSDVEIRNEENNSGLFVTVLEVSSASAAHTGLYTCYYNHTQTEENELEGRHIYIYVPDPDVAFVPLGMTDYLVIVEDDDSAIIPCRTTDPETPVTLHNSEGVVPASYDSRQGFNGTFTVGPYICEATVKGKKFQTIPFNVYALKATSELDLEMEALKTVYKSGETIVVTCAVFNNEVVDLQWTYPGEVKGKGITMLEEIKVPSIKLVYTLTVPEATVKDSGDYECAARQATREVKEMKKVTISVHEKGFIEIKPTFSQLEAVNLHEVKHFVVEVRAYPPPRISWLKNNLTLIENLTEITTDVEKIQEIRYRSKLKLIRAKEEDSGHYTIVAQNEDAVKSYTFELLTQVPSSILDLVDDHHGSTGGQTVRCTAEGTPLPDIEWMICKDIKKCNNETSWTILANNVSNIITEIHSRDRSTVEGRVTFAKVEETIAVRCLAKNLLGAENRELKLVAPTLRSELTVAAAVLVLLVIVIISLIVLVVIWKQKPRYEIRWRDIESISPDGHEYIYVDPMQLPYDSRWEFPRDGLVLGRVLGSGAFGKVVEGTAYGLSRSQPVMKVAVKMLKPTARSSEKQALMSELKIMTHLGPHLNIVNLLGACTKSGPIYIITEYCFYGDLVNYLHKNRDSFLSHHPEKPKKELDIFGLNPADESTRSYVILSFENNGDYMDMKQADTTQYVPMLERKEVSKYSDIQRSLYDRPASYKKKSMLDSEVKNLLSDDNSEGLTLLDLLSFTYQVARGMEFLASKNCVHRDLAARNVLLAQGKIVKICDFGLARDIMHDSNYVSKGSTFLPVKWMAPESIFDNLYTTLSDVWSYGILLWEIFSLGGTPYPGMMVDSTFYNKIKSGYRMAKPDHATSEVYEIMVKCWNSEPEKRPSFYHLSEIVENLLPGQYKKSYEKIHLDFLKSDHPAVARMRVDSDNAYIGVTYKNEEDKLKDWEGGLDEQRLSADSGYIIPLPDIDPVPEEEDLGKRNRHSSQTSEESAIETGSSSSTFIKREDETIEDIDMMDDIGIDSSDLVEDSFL
Chain of Ribosomal protein S6 kinase alpha-3 (P51812 whole entry): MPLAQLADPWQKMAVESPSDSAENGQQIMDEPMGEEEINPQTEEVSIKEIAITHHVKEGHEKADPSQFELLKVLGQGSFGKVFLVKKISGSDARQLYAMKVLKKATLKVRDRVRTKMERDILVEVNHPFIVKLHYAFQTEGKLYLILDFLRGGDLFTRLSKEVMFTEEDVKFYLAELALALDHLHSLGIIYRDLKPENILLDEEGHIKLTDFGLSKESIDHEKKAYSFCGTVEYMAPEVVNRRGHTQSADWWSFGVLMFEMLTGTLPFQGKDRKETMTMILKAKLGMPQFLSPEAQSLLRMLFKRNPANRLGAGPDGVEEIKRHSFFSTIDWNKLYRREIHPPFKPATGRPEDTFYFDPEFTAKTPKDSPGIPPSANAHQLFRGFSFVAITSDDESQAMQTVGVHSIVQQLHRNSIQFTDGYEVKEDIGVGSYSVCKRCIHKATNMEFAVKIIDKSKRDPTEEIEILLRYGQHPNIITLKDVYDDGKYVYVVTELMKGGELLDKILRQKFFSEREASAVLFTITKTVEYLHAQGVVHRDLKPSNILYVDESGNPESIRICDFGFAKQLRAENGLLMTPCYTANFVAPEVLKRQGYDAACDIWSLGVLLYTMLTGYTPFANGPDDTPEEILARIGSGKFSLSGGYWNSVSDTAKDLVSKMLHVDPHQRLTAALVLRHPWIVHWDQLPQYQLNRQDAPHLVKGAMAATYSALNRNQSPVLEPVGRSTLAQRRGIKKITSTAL
Chain of Sigma non-opioid intracellular receptor 1 (Homo sapiens) (Q99720 whole entry): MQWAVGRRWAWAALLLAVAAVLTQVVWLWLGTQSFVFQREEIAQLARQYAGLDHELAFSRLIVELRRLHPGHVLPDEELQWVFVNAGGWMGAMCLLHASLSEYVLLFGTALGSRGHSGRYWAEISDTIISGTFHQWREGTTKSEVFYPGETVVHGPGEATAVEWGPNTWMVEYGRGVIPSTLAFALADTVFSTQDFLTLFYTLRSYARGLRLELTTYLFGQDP
Chain of Calcium/calmodulin-dependent protein kinase type II subunit delta (Homo sapiens) (Q13557 whole entry): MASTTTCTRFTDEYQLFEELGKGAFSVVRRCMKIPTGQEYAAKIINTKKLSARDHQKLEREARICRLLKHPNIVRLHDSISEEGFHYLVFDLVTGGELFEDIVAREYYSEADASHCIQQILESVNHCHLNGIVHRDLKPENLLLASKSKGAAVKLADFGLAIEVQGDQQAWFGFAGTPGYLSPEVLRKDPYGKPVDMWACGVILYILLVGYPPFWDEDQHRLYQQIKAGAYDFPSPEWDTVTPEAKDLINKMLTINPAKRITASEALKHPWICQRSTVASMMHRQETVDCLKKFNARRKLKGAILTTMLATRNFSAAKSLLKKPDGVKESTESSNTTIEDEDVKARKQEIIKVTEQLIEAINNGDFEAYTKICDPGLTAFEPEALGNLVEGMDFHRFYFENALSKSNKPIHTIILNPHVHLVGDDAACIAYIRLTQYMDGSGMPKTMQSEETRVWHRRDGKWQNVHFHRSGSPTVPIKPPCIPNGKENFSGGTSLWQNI
Chain of Ribosomal protein S6 kinase alpha-2 (Homo sapiens) (Q15349 whole entry): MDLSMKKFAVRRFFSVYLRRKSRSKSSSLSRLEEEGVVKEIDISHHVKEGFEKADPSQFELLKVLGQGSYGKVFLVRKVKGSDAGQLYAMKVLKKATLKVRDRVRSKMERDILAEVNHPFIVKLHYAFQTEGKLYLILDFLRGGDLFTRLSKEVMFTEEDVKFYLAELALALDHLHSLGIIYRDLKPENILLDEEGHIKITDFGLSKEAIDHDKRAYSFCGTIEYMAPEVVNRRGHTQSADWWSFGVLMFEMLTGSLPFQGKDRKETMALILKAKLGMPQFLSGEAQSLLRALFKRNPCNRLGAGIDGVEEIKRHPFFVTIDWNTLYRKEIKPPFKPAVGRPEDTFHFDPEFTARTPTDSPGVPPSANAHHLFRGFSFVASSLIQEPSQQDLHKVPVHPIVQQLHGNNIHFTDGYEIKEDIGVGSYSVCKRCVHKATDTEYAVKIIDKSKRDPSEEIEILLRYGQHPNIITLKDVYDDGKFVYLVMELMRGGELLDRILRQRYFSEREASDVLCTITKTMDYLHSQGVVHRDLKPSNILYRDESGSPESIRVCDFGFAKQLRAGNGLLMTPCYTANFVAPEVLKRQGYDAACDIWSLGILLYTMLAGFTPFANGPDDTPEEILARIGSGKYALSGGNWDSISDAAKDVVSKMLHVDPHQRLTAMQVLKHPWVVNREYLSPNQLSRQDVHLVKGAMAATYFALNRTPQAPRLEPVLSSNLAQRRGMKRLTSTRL
Chain of Platelet-derived growth factor receptor alpha (Homo sapiens), P16234 [T674I] (P16234 whole entry T674I): as the sequence (P16234 whole entry V561D) above, with D561V, T674I counted along it
Chain of Platelet-derived growth factor receptor alpha (P16234 whole entry): as the sequence (P16234 whole entry V561D) above, with D561V counted along it
Chain of Mitogen-activated protein kinase 14 (Q16539 whole entry): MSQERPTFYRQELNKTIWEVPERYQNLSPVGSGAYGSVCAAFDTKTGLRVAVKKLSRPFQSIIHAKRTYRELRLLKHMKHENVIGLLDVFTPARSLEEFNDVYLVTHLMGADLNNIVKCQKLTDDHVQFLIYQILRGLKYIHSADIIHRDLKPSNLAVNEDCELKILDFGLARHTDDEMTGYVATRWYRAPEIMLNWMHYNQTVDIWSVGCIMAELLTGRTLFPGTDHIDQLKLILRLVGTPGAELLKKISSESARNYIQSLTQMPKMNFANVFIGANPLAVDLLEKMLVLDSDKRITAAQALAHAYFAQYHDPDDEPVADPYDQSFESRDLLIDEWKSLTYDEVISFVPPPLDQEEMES

% of control [1]: 100%
Structure (SMILES): CCN(CC)CCCCNc1ncc2cc(-c3cc(OC)cc(OC)c3)c(NC(=O)NC(C)(C)C)nc2n1

Structure (SMILES): CN(C)C/C=C/C(=O)Nc1ccc(C(=O)N2CCCC(Nc3ncc(Cl)c(-c4c[nH]c5ccccc45)n3)C2)cc1 (stereo not given)
% of control [2]: 5%

dTM [3]: 0 K
Structure (SMILES): CN(C(=O)c1cnn2cccnc12)c1cc2c(cc1N1CCOCC1)C(=O)N(C[C@@H](F)C(C)(C)O)C2

% of inhibition [4]: 37%
Structure (SMILES): CN1Cc2nccc(-c3cn(C)nc3-c3ccc(F)cc3)c2C1=O

Structure (SMILES): CN(C)CCOc1ccc(-c2nc(-c3ccncc3)c(-c3ccc4c(c3)CC/C4=N\O)[nH]2)cc1
% of control [5]: 100%

Structure (SMILES): Nc1cnc(N2CCc3cc(S(=O)(=O)Nc4c(F)cc(Cl)cc4F)cc(N4CCCC4=O)c32)nc1 [TP-020n]
% of inhibition [6]: -14.4%

Structure (SMILES): COCC(=O)NC/C=C/c1ccc2ncnc(Nc3ccc(Oc4ccc(C)nc4)c(C)c3)c2c1 [CP-724714]
% of control [7]: 100%

% of inhibition [8]: -5.7%
Structure (SMILES): CC[C@@H]1[C@H](F)C(=O)N[C@@H]1COc1nccc2cc(C(N)=O)c(OC)cc12 [ZIMLOVISERTIB]

% of control ([9]; at 1 µM): 87% | % of control ([9]; at 5 µM): 67%
Structure (SMILES): C=CC(=O)Nc1cccc(C(=O)Nc2ccc(Nc3cc(-c4[nH]c(SC)nc4C)ccn3)cc2)c1

Structure (SMILES): COc1cc(Nc2nc(C)cc(-c3cnn4nc(OC)ccc34)n2)cc(C(F)(F)F)c1
% of control [10]: 100%

% of inhibition [11]: 78% | % of inhibition [12]: 60% | % of inhibition [13]: 70%
Structure (SMILES): Cn1cc(Nc2nccc(N3CC4CCC(C3)N4C(=O)[C@@H]3CC3(F)F)n2)cn1

% of control [14]: 1.47%
Structure (SMILES): Cn1cc(-n2cnc3c(NCc4nc5cc(Cl)c(Cl)cc5[nH]4)nc(N4CCOCC4)nc32)cn1
